The structures appear in SMILES notation. Values after ≈ are worked out from the molar mass of the structure shown. Active and inactive are the calls of the source. The rule behind the calls is not given here.

T1 sequence (Q12809 whole entry): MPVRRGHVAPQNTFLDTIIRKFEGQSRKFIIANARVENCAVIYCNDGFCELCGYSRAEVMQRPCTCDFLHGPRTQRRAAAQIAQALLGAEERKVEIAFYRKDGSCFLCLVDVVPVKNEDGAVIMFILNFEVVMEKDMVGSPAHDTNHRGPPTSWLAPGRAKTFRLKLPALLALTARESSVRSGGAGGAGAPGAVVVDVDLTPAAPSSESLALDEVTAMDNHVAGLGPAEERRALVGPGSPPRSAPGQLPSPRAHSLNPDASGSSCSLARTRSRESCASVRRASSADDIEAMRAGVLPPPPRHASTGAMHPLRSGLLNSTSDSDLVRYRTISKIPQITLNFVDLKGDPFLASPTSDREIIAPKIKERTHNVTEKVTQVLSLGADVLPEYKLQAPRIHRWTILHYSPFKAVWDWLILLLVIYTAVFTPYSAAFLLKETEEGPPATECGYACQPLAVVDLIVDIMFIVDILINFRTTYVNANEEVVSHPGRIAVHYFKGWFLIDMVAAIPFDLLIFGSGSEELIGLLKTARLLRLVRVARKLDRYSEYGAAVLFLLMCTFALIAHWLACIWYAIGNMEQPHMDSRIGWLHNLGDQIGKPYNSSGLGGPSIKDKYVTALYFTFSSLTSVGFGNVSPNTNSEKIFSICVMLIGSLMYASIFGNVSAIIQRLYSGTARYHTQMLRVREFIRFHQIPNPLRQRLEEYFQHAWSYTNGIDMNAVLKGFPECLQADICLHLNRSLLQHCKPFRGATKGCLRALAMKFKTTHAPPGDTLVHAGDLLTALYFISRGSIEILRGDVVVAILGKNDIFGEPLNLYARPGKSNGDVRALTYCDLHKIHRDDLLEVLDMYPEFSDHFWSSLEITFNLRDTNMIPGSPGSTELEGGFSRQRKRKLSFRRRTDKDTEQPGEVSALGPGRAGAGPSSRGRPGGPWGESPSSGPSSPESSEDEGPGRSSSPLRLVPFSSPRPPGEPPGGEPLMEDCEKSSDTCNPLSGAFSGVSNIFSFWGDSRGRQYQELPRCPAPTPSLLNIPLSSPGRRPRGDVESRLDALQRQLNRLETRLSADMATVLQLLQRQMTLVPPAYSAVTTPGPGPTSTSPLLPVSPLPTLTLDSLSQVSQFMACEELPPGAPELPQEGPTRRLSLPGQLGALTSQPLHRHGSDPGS

Biological target in the first data set: not listed separately
In words: Inhibition of Haemophilus influenzae DNA gyrase-dependent DNA replication by scintillation proximity assay.
Details: not given
(In general: In a scintillation proximity assay essentially only radioactivity close to the scintillant gives light.)
The IC50 is the concentration that gives 50% inhibition. As for `COc1ccc2ncc(F)c(CCN3CCC(NCc4cc5c(cn4)OCCO5)CC3)c2n1`, the IC50 amounted to 0.051 µg/mL (≈ 0.112 µM).
On to `COc1ccc2ncc(Cl)c(CCN3CCC(NCc4cc5c(cn4)OCCO5)CC3)c2n1`, for which the IC50 came to 0.027 µg/mL (≈ 0.0575 µM).
Same read-out and setting: for `COc1ccc2ncc(F)c(CCN3CCC(NCc4cc5c(cn4)OCCO5)CC3)c2c1` the value was 0.031 µg/mL (≈ 0.0685 µM).

System in the next data set: not listed separately
As to the kind of experiment: Inhibition of Escherichia coli DNA gyrase-dependent DNA replication by scintillation proximity assay.
Details: not given
In the case of `COc1ccc2nccc([C@@H](O)CN3CCC(NCc4ccc5c(c4)OCCO5)CC3)c2c1`, the IC50 stood at 8 ng/mL (≈ 0.0178 µM).

Another data set has as its system Haemophilus influenzae. In words: Antibacterial activity against Haemophilus influenzae H128 after 18 to 24 hrs by broth microdilution method. In kind it is functional.
Details: not given
On to `COc1ccc2nccc([C@@H](O)CN3CCC(NCc4ccc5c(c4)OCCO5)CC3)c2c1`, for which the MIC was determined as 0.5 µg/mL (≈ 1.11 µM).
The same measure, in the same setting: to `COc1ccc2ncc(F)c(CCN3CCC(NCc4cc5c(cn4)OCCO5)CC3)c2n1` belongs 0.125 µg/mL (≈ 0.276 µM).
Consider `COc1ccc2ncc(Cl)c(CCN3CCC(NCc4cc5c(cn4)OCCO5)CC3)c2n1`, for which the MIC turned out to be 0.25 µg/mL (≈ 0.532 µM).
On the same count and under the same terms, to `COc1ccc2ncc(F)c(CCN3CCC(NCc4cc5c(cn4)OCCO5)CC3)c2c1` belongs 0.25 µg/mL (≈ 0.552 µM).

The test system of a further data set is Staphylococcus aureus. As to the kind of experiment: Antibacterial activity against Staphylococcus aureus WCUH 29 after 18 to 24 hrs by broth microdilution method. In kind it is functional.
Details: not given
`COc1ccc2nccc([C@@H](O)CN3CCC(NCc4ccc5c(c4)OCCO5)CC3)c2c1` showed an MIC of 0.125 µg/mL (≈ 0.278 µM).
On the same count and under the same terms, for `COc1ccc2ncc(F)c(CCN3CCC(NCc4cc5c(cn4)OCCO5)CC3)c2n1` the value was 0.01 µg/mL (≈ 0.022 µM); for `COc1ccc2ncc(Cl)c(CCN3CCC(NCc4cc5c(cn4)OCCO5)CC3)c2n1`, 0.01 µg/mL (≈ 0.0213 µM); for `COc1ccc2ncc(F)c(CCN3CCC(NCc4cc5c(cn4)OCCO5)CC3)c2c1`, 0.01 µg/mL (≈ 0.0221 µM).

A further data set relates to Streptococcus pneumoniae. As to the kind of experiment: Antibacterial activity against Streptococcus pneumoniae 1629 after 18 to 24 hrs by broth microdilution method. In kind it is functional.
Details: not given
Consider `COc1ccc2nccc([C@@H](O)CN3CCC(NCc4ccc5c(c4)OCCO5)CC3)c2c1`, for which the MIC is 0.125 µg/mL (≈ 0.278 µM).
For `COc1ccc2ncc(F)c(CCN3CCC(NCc4cc5c(cn4)OCCO5)CC3)c2n1`, the MIC stood at 0.01 µg/mL (≈ 0.022 µM).
The compound `COc1ccc2ncc(Cl)c(CCN3CCC(NCc4cc5c(cn4)OCCO5)CC3)c2n1` returned an MIC of 0.01 µg/mL (≈ 0.0213 µM).
The same measure, in the same setting: for `COc1ccc2ncc(F)c(CCN3CCC(NCc4cc5c(cn4)OCCO5)CC3)c2c1` the value was 0.03 µg/mL (≈ 0.0663 µM).

The next data set has as its target T1, Voltage-gated inwardly rectifying potassium channel KCNH2 (Homo sapiens, UniProt Q12809). As to the kind of experiment: Inhibition of human ERG expressed in HEK293 cells by patch-clamp electrophysiology.
Details: not given
In kind it is cell-based. On the technique in general: In patch-clamp work, channel activity is measured electrically.
In the case of `COc1ccc2ncc(Cl)c(CCN3CCC(NCc4cc5c(cn4)OCCO5)CC3)c2n1`, the IC50 worked out at 2 µM.
Still for that read-out and setting: to `COc1ccc2ncc(F)c(CCN3CCC(NCc4cc5c(cn4)OCCO5)CC3)c2c1` belongs 6 µM.

Another data set has as its target T1, Voltage-gated inwardly rectifying potassium channel KCNH2. As to the kind of experiment: Displacement of [3H]dofetilide from human ERG by liquid scintillation counting.
Details: not given
A general note: Displacement assays read how much labelled ligand stays bound in the presence of the test substance.
`COc1ccc2ncc(Cl)c(CCN3CCC(NCc4cc5c(cn4)OCCO5)CC3)c2n1` registered an IC50 of 2 µM.
Regarding `COc1ccc2ncc(F)c(CCN3CCC(NCc4cc5c(cn4)OCCO5)CC3)c2c1`, the IC50 turned out to be 5 µM. Against the preceding compound, the IC50 is about 2.5-fold higher.

System in another data set: not listed separately
In words: Distribution coefficient, log D of the compound at pH 7.4. In kind it is physicochemical. As to conditions: octanol/water.
By logD is commonly meant the decadic logarithm of the distribution of all forms, ionised or not, between an organic phase and buffer at a given pH. Low values mean lower lipophilicity, high ones higher lipophilicity. Compound `COc1ccc2nccc([C@@H](O)CN3CCC(NCc4ccc5c(c4)OCCO5)CC3)c2c1` registered a logD of 0.87.
Still for that read-out and setting: to `COc1ccc2ncc(F)c(CCN3CCC(NCc4cc5c(cn4)OCCO5)CC3)c2n1` belongs 1.81; to `COc1ccc2ncc(Cl)c(CCN3CCC(NCc4cc5c(cn4)OCCO5)CC3)c2n1`, 2.4; to `COc1ccc2ncc(F)c(CCN3CCC(NCc4cc5c(cn4)OCCO5)CC3)c2c1`, 2.03.

The next data set relates to Streptococcus pneumoniae. As to the kind of experiment: Antibacterial activity against Streptococcus pneumoniae 1629 infected in rat respiratory tract infection model assessed as log reduction in bacterial burden at 50 mg/kg, po after 1 hr post infection relative to non-treated control.
Details: not given
In kind it is functional.
In the case of `COc1ccc2ncc(F)c(CCN3CCC(NCc4cc5c(cn4)OCCO5)CC3)c2n1`, the log10cfu is 2.
Same read-out and setting: to `COc1ccc2ncc(Cl)c(CCN3CCC(NCc4cc5c(cn4)OCCO5)CC3)c2n1` belongs 2.

The subject of a further data set is Streptococcus pneumoniae. As to the kind of experiment: Antibacterial activity against Streptococcus pneumoniae 1629 infected in rat respiratory tract infection model assessed as log reduction in bacterial burden at 50 mg/kg, po after 48 hrs post infection relative to non-treated control. In kind it is functional.
Details: not given
`COc1ccc2ncc(F)c(CCN3CCC(NCc4cc5c(cn4)OCCO5)CC3)c2n1`: the log10cfu result is reported as “>=4”.
Same read-out and setting: for `COc1ccc2ncc(Cl)c(CCN3CCC(NCc4cc5c(cn4)OCCO5)CC3)c2n1` the value was “>=4”.

Another data set deals with Streptococcus pneumoniae. As to the kind of experiment: Antibacterial activity against Streptococcus pneumoniae 1629 infected in rat respiratory tract infection model assessed as complete eradication of bacterial burden at 50 mg/kg, po after 31 hrs post infection. The format is functional, organism-based. More on the design: dose 50 mg/kg.
Details: not given
As for `COc1ccc2ncc(F)c(CCN3CCC(NCc4cc5c(cn4)OCCO5)CC3)c2n1`, the result was Active.
Same read-out and setting: to `COc1ccc2ncc(Cl)c(CCN3CCC(NCc4cc5c(cn4)OCCO5)CC3)c2n1` belongs “Active”.
